Experimental data reported in US20200147038A1, “ASSESSING AND TREATING PSYCHEDELIC-[…]” (Eleusis Benefit Corporation, PBC, priority 2017, published 2020).
Values joined by “and” are separate entries in the source; they are usually repeats but may differ in a detail not shown here. Equal entries are not always repeated.

Assays:
[1] = Retrospective online survey of psilocybin users (Example 2; 5D-ASC Mystical-OBN / Adverse-DED, long-term change); assay type: in vivo, human; conditions: for Negative Change, Mean / Positive Change, Mean: 5-point scale, 3=no change; for Flourishing, Mean: 6-point scale; for Importance, Mean: slider scale 1 to 100
Source text: Participants were U.S. residents recruited through Amazon Mechanical Turk (MTurk; an online source in which individuals participate in survey studies for small cash compensation) who had ingested psilocybin within the past twelve months. The final screened sample consisted of 183 valid responses with 97 males (53.0%) and 85 females (46.4%) (1 missing), and an average age of 31.9 (SD=9.43) ranging from 18 to 70 years.
[…]. The six sections included background items, trait measures, prior state (i.e., life situation before psilocybin session), proximal state (i.e., emotions and motivation at ingestion), intrasession measures (i.e., the experience itself), and current state. Scaled items in all but the long-term outcomes used […] Likert scales ranging from 1=Strongly Disagree to 6=Strongly Agree. Open-ended questions designed to activate participants' relevant recollections were completed before responding to scale items related to prior state, proximal state, intrasession, and current status. Measures utilized in the regression models include the following;
Measures of intrasession experience based on items from six subscales of the 5D-ASC (Dittrich et al., A Pharmacopsychiatry 1998, 31:80; Studerus et al., PLoS ONE 2010, 5). Mystical-OBN used a mean of items measuring Oceanic Boundlessness (Studerus et al., PLoS ONE 2012, 7): “experience of unity”, “spiritual experience”, “blissful state”, and “insightfulness”. Adverse-DED was a mean of items associated with Dread of Ego Dissolution (Studerus et al., PLoS ONE 2012, 7): “impaired control and cognition”, and “anxiety.” Scores for Mystical-OBN ranged from 1-5.92 (M=3.87, SD=1.16; α=0.93), and scores for Adverse-DED ranged from 1-5.47 (M=2.25, SD=0.98, α=0.91).
Scale items measuring change based on pairs of adjectives adapted from Griffiths (2006). Individuals used a 5-point scale to indicate whether they had experienced a decrease, no change, or an increase in the characteristics. Positive change was calculated with the mean of nine items related to interpersonal traits, intrapersonal characteristics, and attitudes (Cronbach's α=0.929). Negative change was the mean of three items (α=0.883).
Analyses of the impact of mystical experience on long-term outcomes were conducted in two ways: (1) independent t-test comparisons of each long-term outcome based on a complete or not complete mystical experience, and (2) a path analysis of the mediating role of mystical experience on positive change.
Scores for importance were based on a slider scale ranging from 1 to 100. […] Flourishing was rated on a 6-point scale ranging from 1=strongly disagree to 6=strongly agree.

[2] = Retrospective online survey of individuals who had consumed psilocybin (Example 1; MEQ30, positive change); assay type: in vivo, human
Experimental: A retrospective survey study was conducted based on crowdsourced online data gathered from individuals who had volitionally consumed psilocybin within the past year. Data were collected about participants' traits and demographic background, and then individuals were primed to recall their life experience before, at the time of ingestion, during, and after the psilocybin before completing scales to measure hypothesized traits and states. Previously validated scales were used where available (e.g., Tellegen Absorption Scale, MEQ30), and new scales were developed and tested for traits and states without existing measures (mental barriers, identity distress, state of surrender). A hierarchical regression model was used to test the relationships, and a path analysis was conducted to test the mediating capacity of ME.
Participants were directed to the relevant webpage after reading informed consent text, completing screening and agreeing to participate in accordance with the stipulations of the Institutional Review Board. Scaled items in all but the long-term outcomes used 4-point Likert scales ranging from 1=Strongly Disagree to 4=Strongly Agree. Answers were required for each item, but each included an option “I prefer not to answer.”
Participants' experiences were measured in two pages on the survey. The first activated their recollection of the experience through an open-ended question asking them to describe their experience and specific fixed response questions about their experience, including whether their eyes were primarily open or closed and the extent to which they were talking or exposed to media with words during their experience. On the second page, subjects responded to […] intermixed items on a 4-point Likert scale from the Mystical Experience Questionnaire (MEQ30) and 36 items from the Sacred Emotions Scale (SES), measuring the extent to which they felt “exuberance” and “dread” during the experience.
The MEQ30 is a validated scale consisting of 30 items systematically validated and utilized in psychedelic studies. Some of the items from the MEQ30 were adapted for this study so that they were semantically consistent with the other scale (e.g., changed “I felt certain that I′d encountered ultimate reality” to “Certainty that I′d encountered ultimate reality”), and used a 4-point rather than a 7-point scale for reasons described above. The scale measures four dimensions of a mystical experience: (a) Mystical; 15 items with α=0.957, (b) Ineffability; 3 items with α=0.775, (c) Timelessness/Spacelessness; 6 items with α=0.844, and (d) Positive Affect; 6 items with α=0.851. The total scale produced Cronbach α=0.967. All of the reliability scores from this sample were similar to internal reliability scores produced in the norming sample (MacLean), which ranged from 0.831 to 0.936 for the four factors and 0.957 for the total scale.
Participants were asked to describe their current state in two pages. […] The second page offered 46 statements including 15 intermixed items adapted from the work of Griffiths et al., (Psychopharmacology 2006, 187:268-283) measuring
Data were collected on Amazon Mechanical Turk (MTurk), an online source in which individuals participate in survey studies for small cash compensation. […] Individuals who were registered as MTurk Workers from the U.S. indicated their interest by accepting the job or the “hit.” If individuals accepted the “hit,” they were directed to a screening page. If they passed those screening items, described below, they were given a link and password to the informed consent followed by the actual survey. • Screening
The mean number of correct attention items in the final sample was 11.5 of 12 (SD=1.02), and the mean for the non-selected group was 4.69 (SD=3.36) attention items answered correctly. The final sample consisted of 143 valid responses with 81 males and 62 females (43%), and an average age of 31.1 (SD=9.64), with ages ranging from 18 to 62 years. […]

[3] = Complete mystical experience, N=51
[4] = None/partial mystical experience, N=129

In the case of `CN(C)CCc1c[nH]c2cccc(OP(=O)(O)O)c12` [psilocybin], the “Adverse-DED score, mean” value ([1]; 5D-ASC Dread of Ego Dissolution items, whole sample (183)) is reported as 2.25, the “Mystical-OBN score, mean” value ([1]; 5D-ASC Oceanic Boundlessness items, whole sample (183)) is reported as 3.87 and the “Negative Change, Mean” value [1, 3] is reported as 2.22. For the same compound, the “Positive Change, Mean” value [1, 3] was 4.00, the “Flourishing, Mean” value [1, 3] was 4.78 and the “Importance, Mean” value [1, 3] was 75.66. The “Negative Change, Mean” value [1, 4] was 2.75 and 2.74, the “Positive Change, Mean” value [1, 4] was 3.39 and the “Flourishing, Mean” value [1, 4] was 4.39. For the same compound, the “Importance, Mean” value [1, 4] was 42.75, the “proportion meeting criteria for a complete ME” value ([2]; MEQ30, >2.5 of 4 on all four subscales, whole sample) was 58% and the “proportion with a full ME, experienced psychedelic users” value ([2]; MEQ30, >2.5 of 4 on all subscales, experienced users, n=70) was 63%. The “proportion with a full ME, novice users” value ([2]; MEQ30, >2.5 of 4 on all subscales, novice users, n=13) was 42%, the “proportion reporting complete MEs, reanalysis with cut point of 3” value ([2]; MEQ30, cut point 3 of 4 on all subscales) was 45% and the “Positive Change, Mean” value ([2]; participants with Complete ME, N=83) was 3.8348. For the same compound, the “Positive Change, Mean” value ([2]; participants with No/Incomplete ME, N=60) was 3.2274 and the “mean positive change score” value ([2]; whole sample (143 valid responses), higher scores = increases in positive emotions and decreases in negative emotions) was 3.58 (SD=0.65).
